One block for each molecule: values may come before it.
How the values were obtained:
[1] = system: human-derived prostate cancer (DU-145); experiment: Nude mouse subcutaneous transplant model of human-derived prostate cancer (DU-145); assay type: in vivo, nude mice
Experimental: It was attempted to evaluate the anticancer efficacy of the compound CG165 of the present disclosure by oral administration using nude mouse subcutaneous transplant models of human-derived prostate cancer (DU-145).
Specifically. Athymic-NCr NCr-nu specific pathogen-free (SPF) 5-week-old nude mice supplied by KOATECH (Pyeongtaek-si, Gyeonggi-do) were used as animals. The cancer cell concentration was adjusted to 3×10^7 cells/mL, and 0.3 mL of cell culture per mouse was injected subcutaneously into the axillary area between the right shoulder and chest wall. Subsequently, CG165 was prepared at the corresponding concentrations by adding DMAC 10%+Tween80 10%+20% HPBCD 80% step by step, and was administered orally at 0.2 mL per 20 g of mouse, which was repeated a total of 23 times for 30 days. At 30 days after starting drug administration, the DU-145 tumor was excised and its weight was measured.
Next, it was attempted to evaluate the anticancer efficacy of the compound CG126 of the present disclosure by intraperitoneal administration using nude mouse subcutaneous transplant models of human-derived prostate cancer (DU-145) in the same manner as above.

STAT3 activity (p-STAT3) [2] = biological target: T1, STAT3 activity (p-STAT3) (Homo sapiens, UniProt P40763); experiment: STAT3 phosphorylation inhibitory effect in cancer cell line by Western blot (Table 2); assay type: cell-based; parameters: endogenous in cells; host or cells: unnamed 'rectal cancer cell' line; conditions: rectal cancer cell line, read-out: Concentration at which STAT3 activity (p-STAT3) is inhibited by 50% (μM; IC50)
Experimental: (§1) Prostate cancer cell line DU-145, breast cancer cell MDA-MB 468, lung cancer cell HCC827, natural killer cells (NKL), or bone marrow-derived macrophages (BMDM) (4×10^5 cells), which are immune cells, were plated in a 6-well plate. After 24 hours, the cells were each treated with 0.1% DMSO, HCA, EA, and the compounds prepared in Synthesis Examples 1 to 8 according to concentration and time, washed with PBS, and recovered using RIPA buffer. […] of protein quantified using the Bio-Rad protein assay kit (Bio-Rad, Hercules, California, USA) was subjected to 8% SDS-PAGE electrophoresis and transferred to a PVDF membrane (EMD Millipore, Billerica, MA, USA). After blocking the membrane with TBST containing 5% skim milk, the experiment was performed using primary and secondary antibodies. The primary antibodies used were p-STAT3 (Y705) (Cell Signaling), STAT3 (Cell Signaling), Cyclin D1 (Santa Cruz), Cyclin A (Santa Cruz), Mcl-1 (Santa Cruz), Survivin (Cell Signaling), Bcl-XL (Santa Cruz), and PARP (Cell Signaling) GAPDH (Santa Cruz), and the secondary antibodies used were HRP-conjugated goat anti-rabbit and anti-mouse IgG (Jackson ImmunoResearch Laboratories, West Grove, PA, USA). The antibodies used were each washed three times with TBST, and bands were detected using Luminata Forte Western HRP substrate (EMD Millipore) by LAS 4000 mini (GE Healthcare Life Sciences). Subsequently, correction using GAPDH was performed using the MultiGauge program (Fuji Photo Film, Tokyo, Japan).
The STAT3 phosphorylation inhibitory effect of the cinnamamide derivatives of Chemical Formula 1 prepared in Synthesis Examples 1 to 8 in cancer cell lines was confirmed by Western blot.
Specifically, the STAT3 phosphorylation inhibitory effect in rectal cancer cell was confirmed line as an example of representative carcinoma.

[3] = biological target: T2, STAT3 phosphorylation (p-STAT3) (Mus musculus, UniProt P42227); experiment: STAT3 phosphorylation inhibition in IL-10-treated bone marrow-derived macrophages (BMDM) by Western blot; assay type: cell-based, C57BL/6 mice; conditions: for inhibition of phosphorylation of STAT3, dependence on concentration: 1 hour pre-treatment, then IL-10 for 15 minutes
T2 construct: the bone marrow-derived macrophages isolated from mouse bone marrow; endogenous in cells; host or cells: primary bone marrow-derived macrophages from C57BL/6 mice
Experimental: as §1, with “Japan). […]” for “Japan).”
Subsequently, in order to confirm the function of CG155 and CG165 in inhibiting STAT3 activation in the bone marrow-derived macrophages isolated from mouse bone marrow, the bone marrow-derived macrophages were each pre-treated with DMSO, CG155 (5 μM, 10 μM), and CG165 (2 μM, 5 μM) for 1 hour. After removing the culture medium, the bone marrow-derived macrophages were treated with interleukin-10 (IL-10), a type of cytokine that can activate STAT3, for 15 minutes, and the function of CG155 and CG165 on inhibiting STAT3 activation was measured by Western blot using p-STAT3 antibody.

[4] = biological target: T3, STAT3 phosphorylation (p-STAT3) (Homo sapiens, UniProt P40763); experiment: STAT3 phosphorylation inhibition in natural killer cells (NKL) by Western blot; assay type: cell-based; conditions: 2, 5, 10 μM
T3 construct: endogenous in cells; host or cells: NKL natural killer cells
Experimental: as §1, with “The primary antibodies used were p-STAT3 (Y705) (Cell Signaling), STAT3 (Cell Signaling), Cyclin D1 (Santa Cruz), Cyclin A (Santa Cruz), Mcl-1 (Santa Cruz), Survivin (Cell Signaling), Bcl-XL (Santa Cruz), and PARP (Cell Signaling) GAPDH (Santa Cruz), and the secondary antibodies used were HRP-conjugated goat anti-rabbit and anti-mouse IgG (Jackson ImmunoResearch Laboratories, West Grove, PA, USA).” left out, “Subsequently, correction using GAPDH was performed using the MultiGauge program (Fuji Photo Film, Tokyo, Japan).” left out
Specifically, NKL (4×10^5 cells) were plated in 6-well plate and each treated with 2 μM, 5 μM, and 10 μM of CG155 or CG165, and then the degree of STAT3 phosphorylation was measured by Western blot using p-STAT3 antibody.

[5] = system: prostate cancer cell line DU-145; experiment: Cell proliferation assay (WST-1) in prostate cancer cell line DU-145; assay type: cell-based, human; conditions: 24 or 48 hours
Experimental: In Example 1, it was confirmed that STAT3 activity (p-STAT3) was inhibited in cancer cells when treated with the cinnamamide derivatives of Chemical Formula 1 prepared in Synthesis Examples 1 to 8. In order to confirm the effect of inhibiting STAT3 activity on inhibition of cancer cell growth, cell proliferation assay was performed using the prostate cancer cell line, a representative carcinoma.
Specifically, the prostate cancer cell line DU-145 (0.8×10^4 cells) was plated in a 96-well plate. After 24 hours, DMSO (control) and CG-165 were treated for 24 or 48 hours according to concentration, and then treated with 10 ul of WST-1 reagent (Dojindo Laboratories, Kumamoto, Japan). After treatment for about 1 hour, cell viability was calculated using the absorbance measured at 450 nm with a microplate reader (Multiskan GO system, Thermo Fisher Scientific, Rockford, IL, USA).

STAT3 activity (p-STAT3) [6] = biological target: T1, STAT3 activity (p-STAT3); experiment: STAT3 phosphorylation inhibition in lung cancer cell line HCC827 by Western blot; assay type: cell-based; parameters: endogenous in cells
Experimental: as §1, with “Subsequently, correction using GAPDH was performed using the MultiGauge program (Fuji Photo Film, Tokyo, Japan).” left out

STAT3 activity (p-STAT3) [7] = biological target: T1, STAT3 activity (p-STAT3); experiment: STAT3 phosphorylation inhibition in breast cancer cell line MDA-MB-468 by Western blot; assay type: cell-based; parameters: endogenous in cells
Experimental: as §1, with “Subsequently, correction using GAPDH was performed using the MultiGauge program (Fuji Photo Film, Tokyo, Japan).” left out

[8] = system: STAT3 target proteins (cyclin A, Mcl-1, survivin), caspase 3, PARP; experiment: Expression of STAT3 target proteins and apoptotic effect in cancer cell lines by Western blot; assay type: cell-based
Experimental: as §1
In Example 1, it was confirmed that STAT3 activity (p-STAT3) was inhibited in cancer cells when treated with the compound CG165 of the present disclosure. The effect of inhibiting the expression of STAT3 target proteins and the apoptotic effect due to the inhibition of STAT3 activity were confirmed using Western blot.

[9] = system: breast cancer cell line MDA-MB-468; experiment: Cell proliferation assay (WST-1) in breast cancer cell line MDA-MB-468; assay type: cell-based; conditions: 24 or 48 hours
Experimental: In Example 1, it was confirmed that STAT3 activity (p-STAT3) was inhibited by more than 50% in cancer cells when treated with the compound CG165 of the present disclosure. In order to confirm the effect of inhibiting STAT3 activity on inhibition of cancer cell growth, cell proliferation assay was performed using the breast cell line, a representative carcinoma.
Specifically, the breast cancer cell line MDA-MB-468 was treated with CG-165 according to concentrations for 24 or 48 hours, and then the degree of cell viability was measured using the WST-1 assay (Dojindo Laboratories, Kumamoto, Japan).

[10] = system: MCF10A, human breast epithelial cells; experiment: Cell viability (WST-1) in normal cells MCF10A; assay type: cell-based; conditions: 10 μM, 48 hours
[11] = system: human foreskin fibroblasts HFF; experiment: Cell viability (WST-1) in normal cells HFF; assay type: cell-based; conditions: 10 μM, 48 hours
STAT3 activity (p-STAT3) [12] = biological target: T1, STAT3 activity (p-STAT3); experiment: STAT3 phosphorylation inhibition in prostate cancer cell line DU-145 by Western blot; assay type: cell-based; parameters: endogenous in cells; host or cells: DU-145, MDA-MB-468, HCC827
Experimental: as §1
Next, the STAT3 phosphorylation inhibitory effect of the compound CG165 of the present disclosure in cancer cell lines was confirmed by Western blot.

[13] = Single oral dose toxicity in mice; assay type: in vivo; conditions: male mice; 100 mg/kg, 200 mg/kg, and 300 mg/kg
Experimental: In order to obtain information on the acute toxicity of the compound CG165 of the present disclosure whose anticancer effect has been verified in animal models, the test substance was administered orally once at 100 mg/kg, 200 mg/kg, and 300 mg/kg to male mice to determine mortality, general symptoms, weight change, and post-mortem over 7 days.
Specifically, 20 Athymic-NCr NCr-nu specific pathogen-free (SPF) 5-week-old nude mice supplied by KOATECH (Pyeongtaek-si, Gyeonggi-do) were used as animals. Subsequently, CG165 was prepared as administration solution at different concentrations by adding DMAC 10%+Tween80 10%+20% HPBCD 80% step by step, and was administered orally.
General symptoms and dead animals were observed every hour from 1 to 6 hours after the final administration on the day of administration, and once daily from the day after administration until the 7th day for observation of changes in general symptoms, toxic symptoms, and the presence of dead animals.
In order to observe changes in body weight, the body weight of all animals used in the test was measured before administration and on days 0, 1, 2, 4, and 7 after administration.
On the 7th day after administration, all animals were anesthetized using CO2 gas, laparotomized, and killed by exsanguination by cutting the abdominal artery and vein, and all internal organs were visually observed.

T1 sequence (P40763 whole entry): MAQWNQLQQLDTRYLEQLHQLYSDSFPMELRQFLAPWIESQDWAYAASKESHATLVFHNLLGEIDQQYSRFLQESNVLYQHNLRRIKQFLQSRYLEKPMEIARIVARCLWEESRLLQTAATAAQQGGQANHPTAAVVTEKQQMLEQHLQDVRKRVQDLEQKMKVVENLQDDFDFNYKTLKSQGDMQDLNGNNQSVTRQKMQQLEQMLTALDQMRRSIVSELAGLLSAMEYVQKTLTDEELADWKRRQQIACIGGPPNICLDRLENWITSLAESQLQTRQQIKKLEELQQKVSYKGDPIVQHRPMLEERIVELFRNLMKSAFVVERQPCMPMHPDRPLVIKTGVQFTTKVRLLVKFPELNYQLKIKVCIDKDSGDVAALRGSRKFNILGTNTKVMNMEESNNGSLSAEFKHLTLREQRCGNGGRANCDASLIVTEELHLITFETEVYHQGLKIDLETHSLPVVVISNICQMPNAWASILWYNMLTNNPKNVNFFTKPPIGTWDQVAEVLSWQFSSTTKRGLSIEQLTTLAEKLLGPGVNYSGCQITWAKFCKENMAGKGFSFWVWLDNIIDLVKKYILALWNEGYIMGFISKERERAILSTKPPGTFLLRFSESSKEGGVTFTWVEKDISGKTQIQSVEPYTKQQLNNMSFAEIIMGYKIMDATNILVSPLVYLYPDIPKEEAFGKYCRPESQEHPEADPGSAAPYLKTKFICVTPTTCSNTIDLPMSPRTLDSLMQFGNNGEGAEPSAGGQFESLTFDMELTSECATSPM
T2 sequence (P42227 whole entry): as the sequence (P40763 whole entry) above, with E760D counted along it
T3 sequence (P40763 whole entry): as the sequence (P40763 whole entry) above

inhibition of phosphorylation of STAT3, dependence on concentration [3]: concentration-dependent manner | IC50 (STAT3 activity (p-STAT3) [2]): 5 µM
Compound: C=C(C)C(=O)NC(=O)/C=C/c1ccccc1OCc1ccncc1 [CG155]
inhibition of phosphorylation of STAT3, dependence on concentration [4]: concentration-dependent manner

IC50 (STAT3 activity (p-STAT3) [2]): 3.5 µM
Compound: C#CCOc1ccccc1/C=C/C(=O)NC(=O)C(=C)C [CG164]

IC50 (STAT3 activity (p-STAT3) [2]): 2 µM
Compound: C=C(C)C(=O)NC(=O)/C=C/c1ccccc1Cl [CG168]

IC50 (STAT3 activity (p-STAT3) [2]): 3.5 µM
Compound: C=C(C)C(=O)NC(=O)/C=C/c1ccccc1OCc1ccccc1 [CG187]

The next lines start with the molecule.

Compound: C=C(C)C(=O)NC(=O)/C=C/c1ccccc1OC [CG126]
decrease in tumor weight compared to the vehicle ([1]; 30 mg/kg intraperitoneal, day 25, p<0.06): 54.2% | IC50 (STAT3 activity (p-STAT3) [2]): 3.7 µM

Compound: C=C(C)C(=O)NC(=O)/C=C/c1ccccc1C [CG127]
IC50 (STAT3 activity (p-STAT3) [2]): 8.1 µM

Compound: C=C(C)C(=O)NC(=O)/C=C/c1ccccc1O [CG133]
IC50 (STAT3 activity (p-STAT3) [2]): 6.2 µM

Compound: C#CCOc1ccccc1/C=C/C(=O)N(C)C(=O)C(=C)C [CG165]
inhibition of growth of cancer cells (cell viability, WST-1) [5]: inhibited the growth of cancer cells in a concentration-dependent manner | inhibition of STAT3 activity (p-STAT3), dependence on concentration (STAT3 activity (p-STAT3) [6]): concentration-dependent manner | inhibition at 5 µM (STAT3 activity (p-STAT3) [6]; 5 μM): > 50% | change in body weight compared to the vehicle ([1]; 30 mg/kg oral): no decrease in body weight was observed | decrease in tumor weight compared to the vehicle ([1]; 30 mg/kg oral, day 30, p<0.05): 43.3% | change in body weight compared to the vehicle ([1]; 60 mg/kg oral): no decrease in body weight was observed | decrease in tumor weight compared to the vehicle ([1]; 60 mg/kg oral, day 30, p<0.05): 64.3% | tumor growth inhibition (tumor size) compared to the vehicle ([1]; 60 mg/kg oral, day 30, p<0.05): 63.3% | tumor growth inhibition (tumor size) compared to the vehicle ([1]; P.O, 30 mg/kg, day 30, p<0.05): 45.6% | inhibition of STAT3 activity (p-STAT3), dependence on concentration (STAT3 activity (p-STAT3) [7]): concentration-dependent manner | inhibition at 5 µM (STAT3 activity (p-STAT3) [7]; 5 μM): > 50% | caspase 3 activation [8]: activated | decomposition of PARP protein (cell death biomarker) [8]: promoted | expression of cyclin A, Mcl-1, and survivin (target proteins of STAT3) [8]: significantly inhibited | inhibition of growth of breast cancer cells (cell viability, WST-1) [9]: inhibited the growth of breast cancer cells in a concentration-dependent manner | effect on the growth of normal cells (cell viability, WST-1) [10]: no significant effect | inhibition at 5 µM ([3]; 5 μM, IL-10 stimulated, read-out: inhibition of STAT3 activation): > 90% | inhibition of phosphorylation of STAT3, dependence on concentration [3]: concentration-dependent manner | inhibition of phosphorylation of STAT3, dependence on concentration [4]: concentration-dependent manner | effect on the growth of normal cells (cell viability, WST-1) [11]: no significant effect | IC50 (STAT3 activity (p-STAT3) [2]): 1.8 µM | inhibition of STAT3 activity (p-STAT3), dependence on concentration (STAT3 activity (p-STAT3) [12]): concentration-dependent manner | inhibition of STAT3 activity (p-STAT3), dependence on time (STAT3 activity (p-STAT3) [12]): time-dependent manner | inhibition at 2 µM (STAT3 activity (p-STAT3) [12]; 2 μM): > 50% | toxicological changes upon single oral administration [13]: did not cause toxicological changes
